Read-outs that look alike come from different tables or passages of the source. Where only a bound is given, the exact number is not on record here.

The source of these data is patent publication US9556135B2, “Amino-dihydrothiazine and amino-dioxido dihydrothiazine compounds as beta-secretase antagonists and methods of use” (Amgen Inc., priority 2012, dated 2017).

Data set [1] addresses Beta Secretase enzyme (BACE1) (Homo sapiens (Human), UniProt P56817). The experiment in a line: In vitro enzymatic BACE FRET assay. Format: biochemical. As to the method: In Vitro Enzymatic BACE FRET (Fluorescence Resonance Energy Transfer) Assay (Enzyme Assay Data in the Example Tables I and II)
The assay buffer used in this screen is 0.05 M acetate, pH 4.2, 10% DMSO final, 100 uM genapol (which is a nonionic detergent, below its Critical Micelle Concentration). […] This assay is effectively started by the addition of FRET substrate (50 nM) and the combination is incubated for one hour. The FRET assay is terminated with by addition of Tris buffer, which raises the pH to neutrality, and the fluorescence is determined. The FRET substrate is a peptide with commercially available fluorophore and quencher, on opposite sides of the BACE cleavage site. Proteolytic cleavage of the FRET substrate releases quenching of fluorescence (excitation […] and […]).

In data set [2] the target is Cathepsin D (Cat D) (Homo sapiens (Human), UniProt P07339). The experiment in a line: In vitro enzymatic Cathepsin D (Cat D) FRET assay. Format: biochemical. The conditions noted are these: read-out: CatD IC50. The method, then:
In Vitro Enzymatic Cathepsin D (Cat D) FRET (Fluorescence Resonance Energy Transfer) Assay Recombinant Cat D was expressed in CHO cells. […] The Cat D enzyme (9 nM) is pre-incubated for one hour with inhibitors, typically in about 1 uL of DMSO according to a serial dilution, is added thereto. […] The FRET assay is terminated with by addition of Tris buffer, which raises the pH to neutrality, and the fluorescence is determined. The FRET substrate is a peptide with commercially available fluorophore and quencher, on opposite sides of the BACE cleavage site. The Cat D substrate peptide sequence is based on sequence #1 of Table 1 from Gulnik et al. […] Where available, the in-vitro Cat D FRET assay data for each of the Examples, conducted by the first procedure, is provided.

Data set [3] deals with Aβ40 in conditioned medium of cells stably expressing Amyloid Precursor Protein (APP). Description: In vitro BACE cell-based assay (HEK cell assay), Aβ40 sandwich ELISA. As to the method: In Vitro BACE Cell-Based Assay
The cell-based assay measures inhibition or reduction of Aβ40 in conditioned medium of test compound treated cells expressing amyloid precursor protein.
Cells stably expressing Amyloid Precursor Protein (APP) were plated at a density of 40K cells/well in 96 well plates (Costar). The cells were cultivated for 24 hours at 37° C. and 5% CO2 in DMEM supplemented with 10% FBS. The test compounds were then added to cells in 10-point dose response concentrations with the starting concentration being either 100 μM or 10 μM. The compounds were diluted from stock solutions in DMSO and the final DMSO concentration of the test compounds on cells was 0.1%. After 24 h of incubation with the test compounds the supernatant conditioned media was collected and the Aβ 40 levels were determined using a sandwich ELISA. The IC50 of the compound was calculated from the percent of control or percent inhibition of Aβ 40 as a function of the concentration of the test compound.
The sandwich ELISA to detect Aβ 40 was performed in 96 well microtiter plates, which were pre-treated with goat anti-rabbit IgG (Pierce). The capture and detecting antibody pair that were used to detect Aβ 40 from cell supernatants were affinity purified pAb40 (Biosource) and biotinylated 6E10 (Signet Labs Inc.), respectively. The optimal concentration for the pAb40 antibody was 3 μg/ml in Superblock/TBS (Pierce) that was supplemented with 0.05% Tween 20 (Sigma).
Cellular supernatants were incubated with the capture antibody for 3 h at 4° C., followed by 3 wash steps in TBS-tween (0.05%). The detecting antibody incubation was for 2 h at 4° C., again followed by the wash steps as described previously. The final readout of the ELISA is Time-Resolved Fluorescence (counts per minute) using Delfia reagents Streptavidin-Europium and Enhancement solutions (Perkin Elmer) and the Victor 2 multilabel counter (Perkin Elmer).
On the technique in general: An ELISA detects its analyte on a solid surface through an enzyme-linked reagent.

Data set [4] has as its system Aβ in lumbar CSF. The note with it: after oral dosing of 30 or 90 mg, healthy volunteers; cited from earlier work.
Data set [5] deals with pigment epithelium of the rat's eye. The conditions noted are these: higher compound dose given for three months; cited from earlier work.
Where [6] appears, read: Homo sapiens, HEK293, average IC50, HEK cell assay.
Where [7] appears, read: average IC50, enzyme assay (Table II).

Cathepsin D (Cat D), sequence (P07339 65-412, species assumed): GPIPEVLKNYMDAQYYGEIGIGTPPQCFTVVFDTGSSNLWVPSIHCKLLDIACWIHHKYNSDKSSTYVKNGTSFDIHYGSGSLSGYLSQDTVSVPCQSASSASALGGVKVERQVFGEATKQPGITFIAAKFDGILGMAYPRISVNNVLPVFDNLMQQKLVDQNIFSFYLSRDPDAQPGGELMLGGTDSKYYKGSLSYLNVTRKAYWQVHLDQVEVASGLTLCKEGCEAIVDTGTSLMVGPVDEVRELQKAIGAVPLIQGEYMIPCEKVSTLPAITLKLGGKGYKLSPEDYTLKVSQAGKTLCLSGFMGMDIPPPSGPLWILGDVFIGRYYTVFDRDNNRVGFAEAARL
Beta Secretase enzyme (BACE1), sequence (P56817 46-501): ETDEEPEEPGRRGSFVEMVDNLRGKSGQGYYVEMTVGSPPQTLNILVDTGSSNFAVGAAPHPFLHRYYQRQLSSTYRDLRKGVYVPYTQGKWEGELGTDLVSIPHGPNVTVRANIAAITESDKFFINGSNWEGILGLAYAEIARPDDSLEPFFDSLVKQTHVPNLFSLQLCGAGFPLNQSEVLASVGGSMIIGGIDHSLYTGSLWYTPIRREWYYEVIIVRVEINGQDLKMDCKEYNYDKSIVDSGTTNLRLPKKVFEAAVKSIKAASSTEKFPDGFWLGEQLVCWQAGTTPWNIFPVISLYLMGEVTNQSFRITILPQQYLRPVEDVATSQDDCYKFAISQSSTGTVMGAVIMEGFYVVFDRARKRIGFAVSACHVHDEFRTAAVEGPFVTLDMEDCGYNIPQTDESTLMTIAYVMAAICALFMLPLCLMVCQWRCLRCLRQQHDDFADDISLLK

Regarding `CO[C@H]1C[C@]2(C1)C(N)=N[C@](C)(c1cc(NC(=O)c3ncc(Cl)cc3C)ccc1F)CS2(=O)=O` [Example 460, N-(3-((2R,4r,7R)-9-amino-2-methoxy-7-methyl-5,5-dioxido-5-thia-8-azaspiro[3.5]non-8-en-7-yl)-4-fluorophenyl)-5-chloro-3-methylpicolinamide], the IC50 came out at 4 nM in data set [1] (average IC50, enzyme assay); 466000 nM in data set [2] (Cathepsin D FRET assay); 34.9 nM in data set [3] (setting [6]).

On to `Cc1c(C(=O)Nc2ccc(F)c([C@@]3(C)N=C(N)C4(CC4)S(=O)(=O)[C@H]3F)c2)nc2ccc(Cl)cn12` [Example 462, N-(3-((5R,6R)-8-amino-5-fluoro-6-methyl-4,4-dioxido-4-thia-7-azaspiro[2.5]oct-7-en-6-yl)-4-fluorophenyl)-6-chloro-3-methylimidazo[1,2-a]pyridine-2-carboxamide], for which the concentration for half-maximal inhibition (IC50) came to 3.2 nM in data set [1] (average IC50, enzyme assay); 60100 nM in data set [2] (Cathepsin D FRET assay); 10.4 nM in data set [3] (setting [6]).

For the compound “N-(3-((4aR,7aS)-3-amino-2,2-dimethyl-1,1-dioxido-7,7a-dihydro-2H-furo[3,4-b][1,4]thiazin-4a(5H)-yl)-4-fluorophenyl)-3-chloro-1,7-naphthyridin-8-amine,N-(3-((4aS,7aR)-3-amino-2,2-dimethyl-1,1-dioxido-7,7a-dihydro-2H-furo[3,4-b][1,4]thiazin-4a(5H)-yl)-4-fluorophenyl)-3-chloro-1,7-naphthyridin-8-amine [Example 429]”, the IC50 was 4.6 nM in data set [1] (average IC50, enzyme assay); 131000 nM in data set [2]; 157 nM in data set [3] (average IC50, cell assay).

Consider `COc1cnc(C(=O)Nc2ccc(F)c([C@@]3(C(F)(F)F)CS(=O)(=O)C(C)(C)C(N)=N3)c2)cn1` [Example 34, N-(3-((3R)-5-amino-6,6-dimethyl-1,1-dioxido-3-(trifluoromethyl)-3,6-dihydro-2H-1,4-thiazin-3-yl)-4-fluorophenyl)-5-methoxy-2-pyrazinecarboxamide], for which the IC50 was 883 nM in data set [1]; > 400000 nM in data set [2]; > 10000 nM in data set [3] (Homo sapiens, HEK293, Aβ40 in conditioned medium after 24 h incubation).

As for “N-(3-((7R)-9-amino-7-(fluoromethyl)-5,5-dioxido-5-thia-8-azaspiro[3.5]non-8-en-7-yl)-4-fluorophenyl)-3-chloro-1,7-naphthyridin-8-amine,N-(3-((7S)-9-amino-7-(fluoromethyl)-5,5-dioxido-5-thia-8-azaspiro[3.5]non-8-en-7-yl)-4-fluorophenyl)-3-chloro-1,7-naphthyridin-8-amine [Example 243]”, the IC50 in data set [1] (average IC50) worked out at 1.31 nM; in data set [2], 363000 nM; in data set [3] (average IC50) it was 77.9 nM.

For `C[C@@]1(c2cc(-c3cncnc3)c(F)cc2F)CCSC(N)=N1` [LY2811376, (S)-4-(2,4-difluoro-5-pyrimidin-5-yl-phenyl)-4-methyl-5,6-dihydro-4H-[1,3]thiazin-2-ylamine], in data set [4], the “Aβ reductions in lumbar CSF” value is “Prominent and long-lasting Aβ reductions in lumbar CSF”.

For the compound `Cc1c(C(=O)Nc2ccc(F)c([C@]3(C)CS(=O)(=O)[C@]4(C[C@@H](F)C4)C(N)=N3)c2)nc2ccc(Cl)cn12` [Example 464, N-(3-((2 S,4s,7R)-9-amino-2-fluoro-7-methyl-5,5-dioxido-5-thia-8-azaspiro[3.5]non-8-en-7-yl)-4-fluorophenyl)-6-chloro-3-methylimidazo[1,2-a]pyridine-2-carboxamide], the concentration for half-maximal inhibition (IC50) in data set [1] (average IC50, enzyme assay) was 4 nM; in data set [2] (Cathepsin D FRET assay), 67400 nM; in data set [3] (setting [6]) it was 6 nM.

As to “N-(3-((4aR,7aS)-3-amino-2,2-dimethyl-1,1-dioxido-7,7a-dihydro-2H-furo[3,4-b][1,4]thiazin-4a(5H)-yl)-4-fluorophenyl)-5-methoxy-3-methyl-2-pyridinecarboxamide,N-(3-((4aS,7aR)-3-amino-2,2-dimethyl-1,1-dioxido-7,7a-dihydro-2H-furo[3,4-13][1,4]thiazin-4a(5H)-yl)-4-fluorophenyl)-5-methoxy-3-methyl-2-pyridinecarboxamide [Example 428]”, the IC50 in data set [1] (average IC50, enzyme assay) was 9.71 nM; in data set [2], 309000 nM; in data set [3] (average IC50, cell assay), 37.3 nM.

For `Cc1cc(C(F)F)cnc1C(=O)Nc1ccc(F)c([C@]2(C)CS(=O)(=O)[C@]3(C[C@@H](F)C3)C(N)=N2)c1` [Example 338, N-(3-((2S,4s,7R)-9-amino-2-fluoro-7-methyl-5,5-dioxido-5-thia-8-azaspiro[3.5]non-8-en-7-yl)-4-fluorophenyl)-5-(diffuoromethyl)-3-methyl-2-pyridinecarboxamide], the IC50 in data set [1] (setting [7]) came to 2.94 nM; in data set [2] (Table II), 59000 nM; in data set [3] (average IC50, cell assay (Table II)), 10.8 nM.

Consider `COc1cnc(C(=O)Nc2ccc(F)c([C@]3(C)CS(=O)(=O)[C@]4(C[C@H](OC)C4)C(N)=N3)c2)c(C)c1` [Example 461, N-(3-((2R,4r,7R)-9-amino-2-methoxy-7-methyl-5,5-dioxido-5-thia-8-azaspiro[3.5]non-8-en-7-yl)-4-fluorophenyl)-5-methoxy-3-methylpicolinamide], for which the IC50 in data set [1] (average IC50, enzyme assay) was determined as 15.7 nM; in data set [2] (Cathepsin D FRET assay), 399000 nM; in data set [3] (setting [6]), 28 nM.

“N-(3-((7R)-9-amino-7-(fluoromethyl)-5,5-dioxido-5-thia-8-azaspiro[3.5]non-8-en-7-yl)-4-fluorophenyl)-5-(difluoromethoxy)-3-methyl-2-pyridinecarboxamide,N-(3-((7S)-9-amino-7-(fluoromethyl)-5,5-dioxido-5-thia-8-azaspiro[3.5]non-8-en-7-yl)-4-fluorophenyl)-5-(difluoromethoxy)-3-methyl-2-pyridinecarboxamide [Example 410]”: the IC50 amounted to 2.3 nM in data set [1] (average IC50), 170000 nM in data set [2] and 11.9 nM in data set [3] (average IC50).

On to `C[C@@]1(c2cc(-c3cncnc3)c(F)cc2F)CCSC(N)=N1` [LY 2811376], for which, in data set [5], the rat toxicology finding result is “damaged the pigment epithelium of the rat's eye”.

For `COc1cnc(C(=O)Nc2cc([C@]3(C)CS(=O)(=O)C(C)(C)C(N)=N3)c(F)cn2)cn1` [Example 143, (R)—N-(4-(5-amino-3,6,6-trimethyl-1,1-dioxido-3,6-dihydro-2H-1,4-thiazin-3-yl)-5-fluoropyridin-2-yl)-5-methoxypyrazine-2-carboxamide], the IC50 amounted to 115 nM in data set [1] (setting [7]); 221000 nM in data set [2] (Table II); 462 nM in data set [3] (Homo sapiens, HEK293, average IC50, cell assay (Table II)).

Take `COc1cnc(C(=O)Nc2ccc(F)c([C@]3(C)CS(=O)(=O)[C@]4(C[C@@H](F)C4)C(N)=N3)c2)c(C)c1` [Example 463, N-(3-((2S,4s,7R)-9-amino-2-fluoro-7-methyl-5,5-dioxido-5-thia-8-azaspiro[3.5]non-8-en-7-yl)-4-fluorophenyl)-5-methoxy-3-methylpicolinamide]: the IC50 in data set [1] (average IC50, enzyme assay) is 4.6 nM; in data set [2] (Cathepsin D FRET assay), 76500 nM; in data set [3] (setting [6]), 13.2 nM.

Broadly, the IC50 is the concentration that inhibits the measured activity by half.
